Source: PMC7932537, “Quantitative profiling of protease specificity” (PLoS Computational Biology, 2021)

Key:
MMP-2 = experiment: Substrate phage display with NGS: relative probability (RP) of P3-P1' tetramer clusters; type: biochemical, human; conditions: for relative probability (RP) of matching tetramer: P3-P1' tetramer matching the MS detected MMP2 cleavage sequence, RP_above_4.5; for normalized RP - MMP2: normalized RP of matching tetramer; for avg_RP: MMP2 - no binning, average relative probability of the tetramer, redundant tetramers averaged out; for corresponding MMP2 relative probability (RP): MMP9 tetramers from unique substrates, RP of same tetramer for MMP2
MMP-9 = experiment: as above; type: biochemical, human; conditions: for normalized RP - MMP9: normalized RP of matching tetramer; for MMP9 relative probability (RP): MMP9 tetramers from unique substrates, unrounded values
[1] = RP of matching tetramer, unique part of MMP2 selectome, RP above KL threshold
[2] = RP of matching tetramer, unique part of MMP2 selectome
[3] = RP of matching tetramer, common MMP2-9 selectome
[4] = MMP9, RP of the P3-P1' tetramer matching the MS detected cleavage, RP above 4.7, substrate phage display with NGS
[5] = RP of matching tetramer, common MMP2-9 selectome, RP above KL threshold
[6] = RP according to MMP2, P3-P1' tetramer of unique physiologic MMP2 substrates from MEROPS
[7] = RP of the P3-P1' tetramer, MMP2 substrate phage display/NGS, tetramers of physiologic MEROPS substrates common to MMP2 and MMP9
[8] = RP of the P3-P1' tetramer, MMP9 substrate phage display/NGS, tetramers of physiologic MEROPS substrates common to MMP2 and MMP9
[9] = RP of the P3-P1' tetramer cluster contained in the hexamer, 200 nM MMP-2, 2 h, 37°C, two rounds of selection
[10] = MMP9, RP of the P3-P1' tetramer contained in the hexamer substrate (substrate phage display, NGS)
[11] = MMP2, RP of matching P3-P1' tetramer, common set of MMP2-9 selectome, RP above KL threshold
[12] = MMP9, RP of matching P3-P1' tetramer, common set of MMP2-9 selectome

With GSAL the “relative probability (RP) of matching tetramer” value (MMP-2) was 9.27, the “relative probability (RP) (acc.to MMP2)” value (MMP-2; [1]) was 9.27 and the “normalized RP - MMP2” value (MMP-2; unique part of MMP2 selectome) was 0.2538. For the same substance, the “relative probability (RP) (acc.to MMP9)” value (MMP-9; [2]) was 2.8 and the “normalized RP - MMP9” value (MMP-9; unique part of MMP2 selectome) was 0.05346.

PREL was tested, and the “relative probability (RP) (acc.to MMP2)” value (MMP-2; [3]) was 31.95, the “relative probability (RP)” value (MMP-9; [4]) was 44.67 and the “relative probability (RP) (acc.to MMP9)” value (MMP-9; [5]) was 44.67.

In the case of NRGF, the “relative probability (RP) of matching tetramer” value (MMP-2) is reported as 6.81, the “relative probability (RP) (acc.to MMP2)” value (MMP-2; [1]) is reported as 6.81 and the “normalized RP - MMP2” value (MMP-2; unique part of MMP2 selectome) is reported as 0.1865. The “relative probability (RP) (acc.to MMP9)” value (MMP-9; [2]) was 0 and the “normalized RP - MMP9” value (MMP-9; unique part of MMP2 selectome) was 0.

In the case of FSPL, the “MMP2 relative probability (RP)” value (MMP-2; MMP2 tetramers from unique substrates, unrounded values) is reported as 14.7799, the “Relative probability (RP) rank” value (MMP-2; [6]) is reported as 3161 and the “relative probability (RP)” value (MMP-2; [6]) is reported as 14.78. For the same substance, the “corresponding MMP9 relative probability (RP)” value (MMP-9; MMP2 tetramers from unique substrates, RP of same tetramer for MMP9) was 1.083.

With VSHY the “relative probability (RP) (acc.to MMP2)” value (MMP-2; [7]) was 21.33 and the “relative probability (RP) (acc.to MMP9)” value (MMP-9; [8]) was 15.49.

SLPQ was tested, and the “relative probability (RP) (acc.to MMP2)” value (MMP-2; [7]) was 0.51 and the “relative probability (RP) (acc.to MMP9)” value (MMP-9; [8]) was 0.1.

In the case of MSPANI, the “relative probability (RP)” value (MMP-2; [9]) is reported as 33.5547 and the “relative probability (RP)” value (MMP-9; [10]) is reported as 46.3162.

With HFFK the “relative probability (RP) (acc.to MMP2)” value (MMP-2; [7]) was 0.14 and the “relative probability (RP) (acc.to MMP9)” value (MMP-9; [8]) was 0.27.

In the case of AAAM, the “relative probability (RP) (acc.to MMP2)” value (MMP-2; [11]) is reported as 23.42, the “relative probability (RP) of matching tetramer” value (MMP-2) is reported as 23.42 and the “relative probability (RP) (acc.to MMP9)” value (MMP-9; [12]) is reported as 23.49.

With WGAL the avg_RP (MMP-2) was 26.3441, the “relative probability (RP) of matching tetramer” value (MMP-2) was 26.34 and the “relative probability (RP) (acc.to MMP2)” value (MMP-2; [1]) was 26.34. The “normalized RP - MMP2” value (MMP-2; unique part of MMP2 selectome) was 0.7212, the “relative probability (RP) (acc.to MMP9)” value (MMP-9; [2]) was 3.54 and the “normalized RP - MMP9” value (MMP-9; unique part of MMP2 selectome) was 0.06758.

With KSPQSY the “relative probability (RP)” value (MMP-2; [9]) was 26.1515 and the “relative probability (RP)” value (MMP-9; [10]) was 42.416.

PKFL [P3-P1' tetramer cluster] was tested, and the avg_RP (MMP-2) was 23.745 and the “relative probability (RP)” value (MMP-9; tetramer projected onto MMP-9 cleavage sites determined by Prudova et al. (2010)) was 42.75.

For QGPAAI, the “relative probability (RP)” value (MMP-2; [9]) was 32.0972 and the “relative probability (RP)” value (MMP-9; [10]) was 46.1642.

With RRPRPL the “relative probability (RP)” value (MMP-2; [9]) was 34.3303 and the “relative probability (RP)” value (MMP-9; [10]) was 46.7888.

With PPPL the “relative probability (RP) (acc.to MMP2)” value (MMP-2; [11]) was 13.03, the “relative probability (RP) of matching tetramer” value (MMP-2) was 13.03 and the “relative probability (RP) (acc.to MMP2)” value (MMP-2; [3]) was 13.03. The “relative probability (RP) (acc.to MMP9)” value (MMP-9; [12]) was 14.18, the “relative probability (RP)” value (MMP-9; [4]) was 14.18 and the “relative probability (RP) (acc.to MMP9)” value (MMP-9; [5]) was 14.18.

With PRKQ the “corresponding MMP2 relative probability (RP)” value (MMP-2) was 15.8695 and the “MMP9 relative probability (RP)” value (MMP-9) was 2.4663.

In the case of ASDY, the “relative probability (RP) (acc.to MMP2)” value (MMP-2; [7]) is reported as 0.78 and the “relative probability (RP) (acc.to MMP9)” value (MMP-9; [8]) is reported as 0.38.

For GRGL, the avg_RP (MMP-2) was 4.9808, the “relative probability (RP) (acc.to MMP2)” value (MMP-2; [11]) was 4.98 and the “relative probability (RP) of matching tetramer” value (MMP-2) was 4.98. For the same substance, the “relative probability (RP) (acc.to MMP2)” value (MMP-2; [3]) was 4.98, the “relative probability (RP) (acc.to MMP9)” value (MMP-9; [12]) was 11.45 and the “relative probability (RP)” value (MMP-9; [4]) was 11.45. For the same substance, the “relative probability (RP) (acc.to MMP9)” value (MMP-9; [5]) was 11.45.

For ALYL, the “corresponding MMP2 relative probability (RP)” value (MMP-2) was 5.662 and the “MMP9 relative probability (RP)” value (MMP-9) was 1.807.

PYSI was tested, and the “relative probability (RP) (acc.to MMP2)” value (MMP-2; [11]) was 23.85, the “relative probability (RP) of matching tetramer” value (MMP-2) was 23.85 and the “relative probability (RP) (acc.to MMP9)” value (MMP-9; [12]) was 45.53.

ATPY was tested, and the “relative probability (RP) (acc.to MMP2)” value (MMP-2; [11]) was 12.49, the “relative probability (RP) of matching tetramer” value (MMP-2) was 12.49 and the “relative probability (RP) (acc.to MMP2)” value (MMP-2; [3]) was 12.49. For the same substance, the “relative probability (RP) (acc.to MMP9)” value (MMP-9; [12]) was 9.04, the “relative probability (RP)” value (MMP-9; [4]) was 9.04 and the “relative probability (RP) (acc.to MMP9)” value (MMP-9; [5]) was 9.04.

With IDNL the “relative probability (RP) of matching tetramer” value (MMP-2) was 4.88, the “relative probability (RP) (acc.to MMP2)” value (MMP-2; [1]) was 4.88 and the “normalized RP - MMP2” value (MMP-2; unique part of MMP2 selectome) was 0.1336. For the same substance, the “relative probability (RP) (acc.to MMP9)” value (MMP-9; [2]) was 0.5 and the “normalized RP - MMP9” value (MMP-9; unique part of MMP2 selectome) was 0.009546.

With GLSL the “relative probability (RP) (acc.to MMP2)” value (MMP-2; [7]) was 0.18 and the “relative probability (RP) (acc.to MMP9)” value (MMP-9; [8]) was 4.42.

With LRAV the “relative probability (RP) (acc.to MMP2)” value (MMP-2; [3]) was 11.96, the “relative probability (RP)” value (MMP-9; [4]) was 11.9 and the “relative probability (RP) (acc.to MMP9)” value (MMP-9; [5]) was 11.9.

PQGF was tested, and the “relative probability (RP) (acc.to MMP2)” value (MMP-2; [7]) was 27.05 and the “relative probability (RP) (acc.to MMP9)” value (MMP-9; [8]) was 37.1.

IQSI was tested, and the “relative probability (RP) of matching tetramer” value (MMP-2) was 15.56, the “relative probability (RP) (acc.to MMP2)” value (MMP-2; [1]) was 15.56 and the “normalized RP - MMP2” value (MMP-2; unique part of MMP2 selectome) was 0.4261. For the same substance, the “relative probability (RP) (acc.to MMP9)” value (MMP-9; [2]) was 0.41 and the “normalized RP - MMP9” value (MMP-9; unique part of MMP2 selectome) was 0.007827.

For LSWL, the “relative probability (RP) (acc.to MMP2)” value (MMP-2; [11]) was 25.56, the “relative probability (RP) of matching tetramer” value (MMP-2) was 25.56 and the “relative probability (RP) (acc.to MMP2)” value (MMP-2; [3]) was 25.56. The “relative probability (RP) (acc.to MMP9)” value (MMP-9; [12]) was 20.21, the “relative probability (RP)” value (MMP-9; [4]) was 20.21 and the “relative probability (RP) (acc.to MMP9)” value (MMP-9; [5]) was 20.21.

PGGV was tested, and the “corresponding MMP2 relative probability (RP)” value (MMP-2) was 10.6032 and the “MMP9 relative probability (RP)” value (MMP-9) was 2.434.

For ANPV, the “relative probability (RP) (acc.to MMP2)” value (MMP-2; [7]) was 0.04 and the “relative probability (RP) (acc.to MMP9)” value (MMP-9; [8]) was 0.33.

MRPVGH was tested, and the “relative probability (RP)” value (MMP-2; [9]) was 23.4937 and the “relative probability (RP)” value (MMP-9; [10]) was 20.8057.

For PLAV, the “relative probability (RP) (acc.to MMP2)” value (MMP-2; [11]) was 29.15, the “relative probability (RP) of matching tetramer” value (MMP-2) was 29.15 and the “relative probability (RP) (acc.to MMP2)” value (MMP-2; [3]) was 29.15. For the same substance, the “relative probability (RP) (acc.to MMP9)” value (MMP-9; [12]) was 44.77, the “relative probability (RP)” value (MMP-9; [4]) was 44.77 and the “relative probability (RP) (acc.to MMP9)” value (MMP-9; [5]) was 44.77.
